{"source": "ChEMBL document CHEMBL5512597", "about": "“Triazole hybrid compounds: A new frontier in malaria treatment” (Eur J Med Chem, 2023)", "key": {"Plasmodium falciparum [1]": {"system": "Plasmodium falciparum", "test": "Antimalarial activity against CQ-resistant Plasmodium falciparum K1", "type": "functional, organism-based"}, "Plasmodium falciparum [2]": {"system": "Plasmodium falciparum", "test": "Antimalarial activity against Plasmodium falciparum", "type": "functional, organism-based"}, "Plasmodium falciparum [3]": {"system": "Plasmodium falciparum", "test": "Antimalarial activity against Plasmodium falciparum 3D7 at asexual erythrocytic stage assessed as parasite growth inhibition measured after 24 hrs by [3H]-hypoxanthine incorporation assay", "type": "functional, organism-based"}, "Plasmodium falciparum [4]": {"system": "Plasmodium falciparum", "test": "Antimalarial activity against Plasmodium falciparum Dd2 infected in A+ human erythrocytes assessed as reduction in parasite growth incubated for 72 hrs by SYBR Green I staining based analysis", "type": "functional, organism-based", "details": "Dd2, Erythrocyte"}, "Plasmodium falciparum [5]": {"system": "Plasmodium falciparum", "test": "Antimalarial activity against Plasmodium falciparum 3D7 infected in A+ human erythrocytes assessed as reduction in parasite growth incubated for 72 hrs by SYBR Green I staining based analysis", "type": "functional, organism-based", "details": "3D7, Erythrocyte"}, "Plasmodium falciparum [6]": {"system": "Plasmodium falciparum", "test": "Antimalarial activity against Plasmodium falciparum K1 infected in A+ human erythrocytes assessed as reduction in parasite growth incubated for 72 hrs by SYBR Green I staining based analysis", "type": "functional, organism-based", "details": "K1, Erythrocyte"}, "Plasmodium falciparum [7]": {"system": "Plasmodium falciparum", "test": "Antimalarial activity against Plasmodium falciparum assessed as parasite growth inhibition incubated for 36 to 40 hrs by JSB staining based analysis", "type": "functional, organism-based"}, "[8]": {"test": "Cytotoxicity against human erythrocytes", "type": "toxicity, cell-based, Erythrocyte"}, "Plasmodium falciparum [9]": {"system": "Plasmodium falciparum", "test": "Antimalarial activity against CQ-resistant Plasmodium falciparum Dd2", "type": "functional, organism-based"}}}
{"molecule": "O=C1[C@@H](Oc2ccc(Cl)cc2Cl)[C@@H](c2ccc(OCc3cn(Cc4ccccc4)nn3)cc2)N1c1ccc(OCc2cn(Cc3ccccc3)nn2)cc1", "values": [{"measurement": "IC50", "setting": "Plasmodium falciparum [1]", "value": "< 0.97", "unit": "µM"}]}
{"molecule": "CC1=C(C(=O)Nc2cccc(Cl)c2)C(c2ccc(OCc3cn(Cc4ccccc4)nn3)cc2)n2ncnc2N1", "note": "(stereo not given)", "values": [{"measurement": "IC50", "setting": "Plasmodium falciparum [2]", "value": 2.24, "unit": "µM"}]}
{"molecule": "Cc1cc(C)nc(NS(=O)(=O)c2ccc(-n3cc(COc4cc(=O)oc5ccccc45)nn3)cc2)n1", "values": [{"measurement": "IC50", "setting": "Plasmodium falciparum [3]", "value": "> 79.4", "unit": "µM"}]}
{"molecule": "C[C@H]1[C@H](OC(=O)CCC(=O)OCCCc2cn(-c3ccnc4cc(Cl)ccc34)nn2)O[C@@H]2O[C@@]3(C)CC[C@H]4[C@H](C)CC[C@@H]1[C@@]24OO3", "values": [{"measurement": "EC50", "setting": "Plasmodium falciparum [4]", "value": 0.0046, "unit": "µM"}, {"measurement": "EC50", "setting": "Plasmodium falciparum [5]", "value": 0.0054, "unit": "µM"}, {"measurement": "EC50", "setting": "Plasmodium falciparum [6]", "value": 0.0024, "unit": "µM"}]}
{"molecule": "Cc1ccc(COc2ccc(-n3cc(COc4ccc5ccc(=O)oc5c4)nn3)cc2)cc1", "values": [{"measurement": "IC50", "setting": "Plasmodium falciparum [7]", "value": 0.38, "unit": "µg/mL"}]}
{"molecule": "C=C[C@H]1CN2CC[C@H]1C[C@H]2[C@H](O)c1ccnc2ccc(OC)cc12", "note": "[QUININE]", "values": [{"measurement": "IC50", "setting": "Plasmodium falciparum [7]", "value": 0.268, "unit": "µg/mL"}, {"measurement": "IC50", "setting": "Plasmodium falciparum [2]", "value": 0.083, "unit": "µM"}]}
{"molecule": "CO[C@@H]1C(=O)N(c2ccc(OCc3cn(Cc4ccccc4)nn3)cc2)[C@@H]1c1ccc(OCc2cn(Cc3ccccc3)nn2)cc1", "values": [{"measurement": "IC50", "setting": "Plasmodium falciparum [1]", "value": 0.85, "unit": "µM"}]}
{"molecule": "O=c1ccc2ccc(OCc3cn(-c4ccc(OCc5ccc(F)cc5)cc4)nn3)cc2o1", "values": [{"measurement": "IC50", "setting": "Plasmodium falciparum [7]", "value": 0.49, "unit": "µg/mL"}]}
{"molecule": "Cc1cc(C)nc(NS(=O)(=O)c2ccc(-n3cc(COc4cc5oc(=O)cc(C)c5cc4Cl)nn3)cc2)n1", "values": [{"measurement": "IC50", "setting": "Plasmodium falciparum [3]", "value": 18.1, "unit": "µM"}]}
{"molecule": "Cc1cc(=O)oc2cc(OCc3cn(-c4ccc(S(N)(=O)=O)cc4)nn3)ccc12", "values": [{"measurement": "IC50", "setting": "Plasmodium falciparum [3]", "value": 3.64, "unit": "µM"}]}
{"molecule": "O=c1ccc2ccc(OCc3cn(-c4ccc(OCc5ccc(Cl)cc5)cc4)nn3)cc2o1", "values": [{"measurement": "IC50", "setting": "Plasmodium falciparum [7]", "value": 0.86, "unit": "µg/mL"}]}
{"molecule": "O=[N+]([O-])c1ccc(Cn2cc(-c3ccccc3CO)nn2)cc1", "values": [{"measurement": "CC50", "setting": "[8]", "value": 33.3, "unit": "µg/mL"}, {"measurement": "IC50", "setting": "Plasmodium falciparum [9]", "value": "> 100", "unit": "µg/mL"}]}
{"molecule": "C[C@H]1[C@H](OC(=O)CCC(=O)OCCc2cn(-c3ccnc4cc(Cl)ccc34)nn2)O[C@@H]2O[C@@]3(C)CC[C@H]4[C@H](C)CC[C@@H]1[C@@]24OO3", "values": [{"measurement": "EC50", "setting": "Plasmodium falciparum [4]", "value": 0.0049, "unit": "µM"}, {"measurement": "EC50", "setting": "Plasmodium falciparum [5]", "value": 0.008, "unit": "µM"}, {"measurement": "EC50", "setting": "Plasmodium falciparum [6]", "value": 0.0026, "unit": "µM"}]}
{"molecule": "C[C@H]1[C@@H](OCCc2cn(-c3ccnc4cc(Cl)ccc34)nn2)O[C@@H]2O[C@@]3(C)CC[C@H]4[C@H](C)CC[C@@H]1[C@@]24OO3", "values": [{"measurement": "EC50", "setting": "Plasmodium falciparum [4]", "value": 0.0045, "unit": "µM"}, {"measurement": "EC50", "setting": "Plasmodium falciparum [5]", "value": 0.0088, "unit": "µM"}, {"measurement": "EC50", "setting": "Plasmodium falciparum [6]", "value": 0.002, "unit": "µM"}]}
{"molecule": "CC1=C(C(=O)Nc2ccccc2Cl)C(c2ccc(OCc3cn(Cc4ccccc4)nn3)cc2)n2ncnc2N1", "note": "(stereo not given)", "values": [{"measurement": "IC50", "setting": "Plasmodium falciparum [2]", "value": 1.68, "unit": "µM"}]}
{"molecule": "O=[N+]([O-])c1ccc(Cn2cc(-c3ccccc3CBr)nn2)cc1", "values": [{"measurement": "CC50", "setting": "[8]", "value": "> 100", "unit": "µg/mL"}, {"measurement": "IC50", "setting": "Plasmodium falciparum [9]", "value": "> 100", "unit": "µg/mL"}]}
{"molecule": "Br.O=[N+]([O-])c1ccc(Cn2cc(-c3ccccc3C[P+](c3ccccc3)(c3ccccc3)c3ccccc3)nn2)cc1", "values": [{"measurement": "CC50", "setting": "[8]", "value": "> 100", "unit": "µg/mL"}, {"measurement": "IC50", "setting": "Plasmodium falciparum [9]", "value": "> 100", "unit": "µg/mL"}]}
{"molecule": "C[C@H]1[C@H](OC(=O)CCC(=O)O)O[C@@H]2O[C@@]3(C)CC[C@H]4[C@H](C)CC[C@@H]1[C@@]24OO3", "note": "[ARTESUNATE]", "values": [{"measurement": "EC50", "setting": "Plasmodium falciparum [4]", "value": 0.0109, "unit": "µM"}, {"measurement": "EC50", "setting": "Plasmodium falciparum [5]", "value": 0.0144, "unit": "µM"}, {"measurement": "EC50", "setting": "Plasmodium falciparum [6]", "value": 0.0052, "unit": "µM"}, {"measurement": "CC50", "setting": "[8]", "value": "> 100", "unit": "µg/mL"}, {"measurement": "IC50", "setting": "Plasmodium falciparum [9]", "value": 0.002, "unit": "µg/mL"}]}
{"molecule": "O=[N+]([O-])c1cccc(Cn2cc(CO)nn2)c1", "values": [{"measurement": "CC50", "setting": "[8]", "value": 87.4, "unit": "µg/mL"}, {"measurement": "IC50", "setting": "Plasmodium falciparum [9]", "value": 0.64, "unit": "µg/mL"}]}
{"molecule": "Cc1nc(-c2ccccc2)c(-c2ccccc2)c2cc(-c3cn(CCOC(=O)CCC(=O)O[C@@H]4O[C@@H]5O[C@]6(C)O[C@]57[C@@H](CC[C@@H](C)[C@@H]7C[C@H]6O)[C@H]4C)nn3)ccc12", "values": [{"measurement": "EC50", "setting": "Plasmodium falciparum [4]", "value": 0.444, "unit": "µM"}, {"measurement": "EC50", "setting": "Plasmodium falciparum [5]", "value": 0.646, "unit": "µM"}, {"measurement": "EC50", "setting": "Plasmodium falciparum [6]", "value": 0.256, "unit": "µM"}]}
{"molecule": "O=c1ccc2ccc(OCc3cn(-c4ccc(OCc5ccc([N+](=O)[O-])cc5)cc4)nn3)cc2o1", "values": [{"measurement": "IC50", "setting": "Plasmodium falciparum [7]", "value": 1.2, "unit": "µg/mL"}]}
{"molecule": "CC1=C(C(=O)Nc2ccccc2)C(c2ccc(OCc3cn(Cc4ccccc4)nn3)cc2)n2c(nc3ccccc32)N1", "note": "(stereo not given)", "values": [{"measurement": "IC50", "setting": "Plasmodium falciparum [2]", "value": 1.66, "unit": "µM"}]}
{"molecule": "O=[N+]([O-])c1ccc(Cn2cc(CO)nn2)cc1", "values": [{"measurement": "CC50", "setting": "[8]", "value": "> 100", "unit": "µg/mL"}, {"measurement": "IC50", "setting": "Plasmodium falciparum [9]", "value": 0.62, "unit": "µg/mL"}]}
{"molecule": "C=CCn1cc(COc2ccc([C@@H]3[C@H](Oc4ccccc4)C(=O)N3c3ccccc3)cc2)nn1", "values": [{"measurement": "IC50", "setting": "Plasmodium falciparum [1]", "value": 6.19, "unit": "µM"}]}
{"molecule": "O=c1ccc2ccc(OCc3cn(-c4ccc(S(=O)(=O)N5CCOCC5)cc4)nn3)cc2o1", "values": [{"measurement": "IC50", "setting": "Plasmodium falciparum [3]", "value": "> 85.5", "unit": "µM"}]}
{"molecule": "CC1=C(C(=O)Nc2ccccc2C)C(c2ccc(OCc3cn(Cc4ccccc4)nn3)cc2)n2ncnc2N1", "note": "(stereo not given)", "values": [{"measurement": "IC50", "setting": "Plasmodium falciparum [2]", "value": 1.86, "unit": "µM"}]}
{"molecule": "C[C@H]1[C@@H](OCCCn2cc(-c3ccnc4cc(Cl)ccc34)nn2)O[C@@H]2O[C@@]3(C)CC[C@H]4[C@H](C)CC[C@@H]1[C@@]24OO3", "values": [{"measurement": "EC50", "setting": "Plasmodium falciparum [4]", "value": 0.0052, "unit": "µM"}, {"measurement": "EC50", "setting": "Plasmodium falciparum [5]", "value": 0.0094, "unit": "µM"}, {"measurement": "EC50", "setting": "Plasmodium falciparum [6]", "value": 0.0038, "unit": "µM"}]}
{"molecule": "CC1=C(C(=O)Nc2ccc(C)cc2)C(c2ccc(OCc3cn(Cc4ccccc4)nn3)cc2)n2ncnc2N1", "note": "(stereo not given)", "values": [{"measurement": "IC50", "setting": "Plasmodium falciparum [2]", "value": 1.84, "unit": "µM"}]}
{"molecule": "CC1=C(C(=O)Nc2ccc(C)cc2)C(c2ccc(OCc3cn(Cc4ccccc4)nn3)cc2)n2c(nc3ccccc32)N1", "note": "(stereo not given)", "values": [{"measurement": "IC50", "setting": "Plasmodium falciparum [2]", "value": 1.92, "unit": "µM"}]}
{"molecule": "Cc1c(-c2ccccc2)c2ccc(OCc3cn(-c4ccc(S(N)(=O)=O)cc4)nn3)cc2oc1=O", "values": [{"measurement": "IC50", "setting": "Plasmodium falciparum [3]", "value": 3.68, "unit": "µM"}]}
{"molecule": "O=[N+]([O-])c1ccccc1Cn1cc(CO)nn1", "values": [{"measurement": "CC50", "setting": "[8]", "value": 75.5, "unit": "µg/mL"}, {"measurement": "IC50", "setting": "Plasmodium falciparum [9]", "value": 0.65, "unit": "µg/mL"}]}
{"molecule": "CCCCc1nc(C)c2ccc(-c3cn(CCOC(=O)CCC(=O)O[C@@H]4O[C@@H]5O[C@@]6(C)CC[C@H]7[C@H](C)CC[C@@H]([C@H]4C)[C@@]57OO6)nn3)cc2c1CCCC", "values": [{"measurement": "EC50", "setting": "Plasmodium falciparum [4]", "value": 0.01, "unit": "µM"}, {"measurement": "EC50", "setting": "Plasmodium falciparum [5]", "value": 0.0092, "unit": "µM"}, {"measurement": "EC50", "setting": "Plasmodium falciparum [6]", "value": 0.0042, "unit": "µM"}]}
